Reference: ChEMBL document CHEMBL3600282, “Four new ginsenosides from red ginseng with inhibitory activity on melanogenesis in melanoma cells” (Bioorg Med Chem Lett, 2015)
Active and inactive are the calls of the source. No cut-off for these calls is given here.

Legend:
[1] = system: B16; experiment: Inhibition of alpha-MSH-induced melanogenesis in mouse B16 cells assessed as reduction of melanin content at 25 to 100 uM after 48 hrs; type: functional, cell-based
[2] = Cytotoxicity against mouse B16 cells assessed as cell viability up to 100 uM after 48 hrs by MTT assay; type: cell-based; details: read-out: Activity
[3] = system: B16; experiment: Inhibition of alpha-MSH-induced melanogenesis in mouse B16 cells assessed as reduction of melanin content at 200 uM after 48 hrs; type: functional, cell-based
[4] = biological target: T1, Tyrosinase (Mus musculus) (UniProt P11344); experiment: Inhibition of alpha-MSH-induced tyrosinase activity in mouse B16 cells assessed as reduction of melanin content using L-DOPA as substrate after 2 hrs; type: cell-based
T1 sequence (whole entry): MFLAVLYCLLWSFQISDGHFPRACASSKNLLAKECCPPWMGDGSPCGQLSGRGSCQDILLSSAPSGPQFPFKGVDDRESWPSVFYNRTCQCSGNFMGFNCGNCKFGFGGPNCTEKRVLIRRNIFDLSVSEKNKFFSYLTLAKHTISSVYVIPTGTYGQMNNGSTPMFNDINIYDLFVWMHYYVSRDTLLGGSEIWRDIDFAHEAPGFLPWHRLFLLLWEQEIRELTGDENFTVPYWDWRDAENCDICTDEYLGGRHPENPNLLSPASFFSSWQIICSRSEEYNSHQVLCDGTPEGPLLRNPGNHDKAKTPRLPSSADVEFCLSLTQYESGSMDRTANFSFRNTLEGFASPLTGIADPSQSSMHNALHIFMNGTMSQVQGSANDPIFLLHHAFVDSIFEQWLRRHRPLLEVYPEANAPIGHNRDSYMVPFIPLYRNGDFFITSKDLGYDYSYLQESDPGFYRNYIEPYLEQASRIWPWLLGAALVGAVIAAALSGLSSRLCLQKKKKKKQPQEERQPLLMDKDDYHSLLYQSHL

[5] = system: B16; experiment: Inhibition of alpha-MSH-induced melanogenesis in mouse B16 cells assessed as reduction of melanin content at 100 uM after 48 hrs; type: functional, cell-based
[6] = system: B16; experiment: Inhibition of alpha-MSH-induced melanogenesis in mouse B16 cells assessed as reduction of melanin content after 48 hrs; type: functional, cell-based

SMILES | inhibition [1] | viability at 48 h [2] [%] | inhibition [3] | inhibition [4] | inhibition [5] | inhibition [6]
CCCCOC(=O)[C@H]1O[C@@H](O[C@H]2CC[C@]3(C)[C@H]4CC=C5[C@@H]6CC(C)(C)CC[C@]6(C(=O)O[C@@H]6O[C@H](CO)[C@@H](O)[C@H](O)[C@H]6O)CC[C@@]5(C)[C@]4(C)CC[C@H]3C2(C)C)[C@H](O[C@@H]2O[C@H](CO)[C@@H](O)[C@H](O)[C@H]2O)[C@@H](O)[C@@H]1O | inactive | 95 | – | – | – | –
CC(C)=CCC[C@](C)(O)[C@H]1CC[C@]2(C)[C@@H]1[C@H](O)C[C@@H]1[C@@]3(C)CC[C@H](O)C(C)(C)[C@@H]3[C@@H](O[C@@H]3O[C@H](CO)[C@@H](O[C@H]4O[C@H](CO)[C@@H](O)[C@H](O)[C@H]4O)[C@H](O)[C@H]3O)C[C@]12C | inactive | 95 | – | – | – | –
OC[C@H]1O[C@@H](Oc2ccc(O)cc2)[C@H](O)[C@@H](O)[C@@H]1O | – | – | Active | – | – | –
CC(=O)OC[C@H]1O[C@@H](O[C@H]2[C@H](O[C@H]3CC[C@]4(C)[C@H]5C[C@@H](O)[C@@H]6[C@@H](/C(C)=C\CC=C(C)C)CC[C@@]6(C)[C@]5(C)CC[C@H]4C3(C)C)O[C@H](CO)[C@@H](O)[C@@H]2O)[C@H](O)[C@@H](O)[C@@H]1O | – | 95 | – | Dose-dependent effect | Active | Dose-dependent effect
COC(/C=C(\C)[C@H]1CC[C@]2(C)[C@@H]1[C@H](O)C[C@@H]1[C@@]3(C)CC[C@H](O[C@@H]4O[C@H](CO)[C@@H](O)[C@H](O)[C@H]4O[C@@H]4O[C@H](CO)[C@@H](O)[C@H](O)[C@H]4O)C(C)(C)[C@@H]3CC[C@]12C)C1OC1(C)C (stereo partly drawn) | – | 95 | – | Dose-dependent effect | Active | Dose-dependent effect
